ChEMBL document CHEMBL4033726, “Design of potent dipeptidyl peptidase IV (DPP-4) inhibitors by employing a strategy to form a salt bridge with Lys554” (Bioorg Med Chem Lett, 2017)
pIC50: −log10 of the molar value.

Each compound was assayed on Rattus norvegicus (assay: Ex vivo inhibition of DPP4 in Sprague-Dawley rat plasma at 1 mg/kg, po after 1 to 6 hrs using Gly-Pro-pNA substrate).
Format: functional

With `Cc1ccc(-c2c(CN)c(CC(C)C)nc3ccc(-c4nc(C(=O)O)cs4)cc23)cc1` the inhibition in vivo at 1 mg/kg was > 50%.

Each compound was assayed against Dipeptidyl peptidase 4 (Homo sapiens, UniProt P27487).
Sequence of Dipeptidyl peptidase 4 (P27487 whole entry): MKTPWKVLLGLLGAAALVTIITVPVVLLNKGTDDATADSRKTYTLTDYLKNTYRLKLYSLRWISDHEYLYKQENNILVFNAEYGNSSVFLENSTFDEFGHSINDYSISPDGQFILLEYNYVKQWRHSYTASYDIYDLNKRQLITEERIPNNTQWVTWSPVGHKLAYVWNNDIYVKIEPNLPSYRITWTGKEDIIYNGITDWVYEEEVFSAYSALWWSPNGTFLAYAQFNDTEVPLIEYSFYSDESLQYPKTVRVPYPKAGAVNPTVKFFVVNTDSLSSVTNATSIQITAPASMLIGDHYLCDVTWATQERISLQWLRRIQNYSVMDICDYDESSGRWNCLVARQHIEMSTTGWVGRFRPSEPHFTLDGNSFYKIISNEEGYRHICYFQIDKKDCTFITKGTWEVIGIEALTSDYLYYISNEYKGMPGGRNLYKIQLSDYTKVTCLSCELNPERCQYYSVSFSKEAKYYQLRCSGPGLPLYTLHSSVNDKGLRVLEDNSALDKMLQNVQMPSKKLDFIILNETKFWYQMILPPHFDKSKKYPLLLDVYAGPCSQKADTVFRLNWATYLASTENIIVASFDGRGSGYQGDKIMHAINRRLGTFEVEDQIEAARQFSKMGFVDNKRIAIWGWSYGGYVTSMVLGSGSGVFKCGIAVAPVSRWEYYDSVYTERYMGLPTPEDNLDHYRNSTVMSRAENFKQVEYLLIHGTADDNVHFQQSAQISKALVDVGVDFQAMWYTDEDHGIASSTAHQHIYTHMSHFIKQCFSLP
Description: Inhibition of human DPP4 purified from Caco2 cells pre-incubated for 15 mins before Gly-Pro-pNA substrate addition and measured after 60 mins

In order of falling pIC50:
1. Cc1ccc(-c2c(CN)c(CC(C)C)nc3ccc(-c4nc(C(=O)O)cs4)cc23)cc1  9.42
2. Cc1ccc(-c2c(-c3nc(C(N)=O)cs3)cnc(CC(C)C)c2CN)cc1  8.68
3. Cc1ccc(-c2c(CCc3nc(C(=O)O)cs3)c(C)nc(CC(C)C)c2CN)cc1  8.59
4. Cc1ccc(-c2c(CN)c(CC(C)C)nc3ccc(OCCCCC(=O)O)cc23)cc1  8.34
5. Cc1ccc(-c2c(/C=C/c3nc(C(=O)O)cs3)c(C)nc(CC(C)C)c2CN)cc1  8.26
6. Cc1ccc(-c2c(CN)c(CC(C)C)nc3ccc(OCCCCCC(=O)O)cc23)cc1  8.17
7. Cc1ccc(-c2c(COCc3ccc(C(=O)O)cc3)c(C)nc(CC(C)C)c2CN)cc1  8.14
8. Cc1ccc(-c2c(CCc3nc(C(N)=O)cs3)c(C)nc(CC(C)C)c2CN)cc1  8.07
9. CC(=O)c1csc(-c2cnc(CC(C)C)c(CN)c2-c2ccc(C)cc2)n1  8.06
10. Cc1ccc(-c2c(CN)c(CC(C)C)nc3ccc(OCCCCC(N)=O)cc23)cc1  7.89
11. Cc1ccc(-c2c(CN)c(CC(C)C)nc3ccc(OCCCC(=O)O)cc23)cc1  7.77
12. Cc1ccc(-c2c(CN)c(CC(C)C)nc(C)c2C(=O)OCc2ccc(C(=O)O)cc2)cc1  7.77
13. Cc1ccc(-c2c(CN)c(CC(C)C)nc3ccc(-c4ccc(C(=O)O)o4)cc23)cc1  7.55
14. Cc1ccc(-c2c(CN)c(CC(C)C)nc3ccc(OCCC(=O)O)cc23)cc1  7.54
15. Cc1ccc(-c2c(CN)c(CC(C)C)nc(C)c2C(=O)OCc2ccccc2C(=O)O)cc1  7.54
16. Cc1ccc(-c2c(CN)c(CC(C)C)nc(C)c2C(=O)OC[C@H]2CC[C@H](C(=O)O)CC2)cc1  7.10
17. Cc1ccc(-c2c(CN)c(CC(C)C)nc(C)c2C(=O)OCc2cccc(C(=O)O)c2)cc1  7.06
18. Cc1ccc(-c2c(CN)c(CC(C)C)nc3ccc(OCC(=O)O)cc23)cc1  6.85
19. CC(C)Cc1nc2ccc(C(N)=O)cc2c(-c2ccccc2)c1CN  6.77
20. Cc1ccc(-c2c(CN)n(CC(C)C)c(=O)c3ccc(OCC(N)=O)cc23)cc1  6.66
21. CC(C)(C)Cc1nc2ccc(OCC(N)=O)cc2c(-c2ccccc2)c1CN  6.60
22. Cc1ccc(-c2c(CN)c(CC(C)C)nc(C)c2C(=O)OCCCC(=O)O)cc1  6.33
23. CC(C)Cn1c(CN)c(-c2ccccc2)c2cc(C(N)=O)cnc2c1=O  6.33
24. CCCc1nc2ccc(OCC(N)=O)cc2c(-c2ccccc2)c1CN  6.29
25. CCCCCc1nc2ccc(OCC(N)=O)cc2c(-c2ccccc2)c1CN  6.27
26. CCCCc1nc2ccc(OCC(N)=O)cc2c(-c2ccccc2)c1CN  6.21
27. CC(C)Cc1nc2ccc(Br)cc2c(-c2ccccc2)c1CN  6.20
28. NCc1c(Cc2ccccc2)nc2ccc(OCC(N)=O)cc2c1-c1ccccc1  6.14
29. CC(C)Cn1c(CN)c(-c2ccccc2)c2cc(Br)ccc2c1=O  5.92
30. CC(C)Cn1c(CN)c(-c2ccccc2)c2cc(Br)cnc2c1=O  5.92

Each compound was assayed against Dipeptidyl peptidase 8 (Homo sapiens, UniProt Q6V1X1) (assay: Inhibition of FLAG-tagged human DPP8 expressed in 293-F cells pre-incubated for 20 mins before Gly-Pro-pNA substrate addition and measured after 90 mins).
Format: cell-based

Sequence of Dipeptidyl peptidase 8 (Q6V1X1 whole entry): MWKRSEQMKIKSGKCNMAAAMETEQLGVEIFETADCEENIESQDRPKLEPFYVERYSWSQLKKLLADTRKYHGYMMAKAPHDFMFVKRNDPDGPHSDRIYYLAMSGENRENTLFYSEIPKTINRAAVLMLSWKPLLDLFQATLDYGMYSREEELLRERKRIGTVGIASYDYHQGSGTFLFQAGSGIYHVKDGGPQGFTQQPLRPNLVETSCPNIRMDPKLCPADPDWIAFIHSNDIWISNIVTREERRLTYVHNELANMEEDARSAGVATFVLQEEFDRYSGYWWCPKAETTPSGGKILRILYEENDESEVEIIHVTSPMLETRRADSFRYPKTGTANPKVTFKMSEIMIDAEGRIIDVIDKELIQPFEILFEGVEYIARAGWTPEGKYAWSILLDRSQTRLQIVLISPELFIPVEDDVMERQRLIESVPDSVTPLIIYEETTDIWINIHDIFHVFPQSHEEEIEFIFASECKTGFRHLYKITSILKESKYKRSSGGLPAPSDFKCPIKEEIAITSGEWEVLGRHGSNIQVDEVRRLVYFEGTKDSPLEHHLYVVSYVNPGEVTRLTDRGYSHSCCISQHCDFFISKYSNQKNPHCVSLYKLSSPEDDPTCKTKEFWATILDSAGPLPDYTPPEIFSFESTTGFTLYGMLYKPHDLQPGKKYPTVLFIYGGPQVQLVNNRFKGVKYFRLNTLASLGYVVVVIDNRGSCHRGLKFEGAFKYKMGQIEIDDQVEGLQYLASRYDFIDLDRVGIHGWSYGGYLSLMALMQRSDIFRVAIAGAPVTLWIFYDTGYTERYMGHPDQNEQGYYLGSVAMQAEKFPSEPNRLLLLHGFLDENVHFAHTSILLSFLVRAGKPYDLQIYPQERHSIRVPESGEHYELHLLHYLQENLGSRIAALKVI

With `Cc1ccc(-c2c(CN)c(CC(C)C)nc(C)c2C(=O)OCc2ccc(C(=O)O)cc2)cc1` the pIC50 was < 4.00.
